# Like-named read-outs stand apart in the source and are kept apart here. No end group written: not given here.
# Columns and labels:
# [1] = in vitro; details: human, WI38 normal lung fibroblast cells
# [2] = in vitro; type: cell-based, human; details: human, human red blood cells
# [3] = test system: human red blood cells (RBC); test: in vitro; type: cell-based; details: Table 42
# [4] = test system: WI38
# [5] = test system: MCF7; test: Anti-cancer assay, MTT, LD50; type: cell-based; details: for LD50 MCF7: MCF7 breast adenocarcinoma line, MTT, 24 hours with peptide
# Source text: (§1) Numbers are LD50 values (μg/mL).
# [6] = Leukocyte (WBC) inhibition, toxicity LD50; type: cell-based, human; details: male, human, human leukocytes (buffy coat cells, mostly PBMCs); Table 41, lower part
# Experimental: (§2) In vitro viability of human leukocyte cells in the presence of different peptides at different concentrations was determined by an Alamar Blue protocol. Alamar Blue (Promega, Madison, Wis.) is an indicator dye, formulated to measure quantitatively the proliferation and cytotoxicity of the cells. The dye consists of an oxidation-reduction (redox) indicator that yields a calorimetric change and a fluorescent signal in response to cellular metabolic activity.
# (§3) Assay protocol: Blood from a human was drawn and centrifuged at 1500 rpm for 15 minutes at room temperature. The buffy coat cells at the plasma-red blood cell interface were aspirated. Buffy coat cells (mainly lymphocyte cells) were then transferred into 15 ml centrifuge tubes containing 5 ml of RPMI-1640 medium+10% Fetal Bovine Serum (Gibco, Grand Island, N.Y.). Additional medium was added to the tubes to bring the volume up to 10 ml. The buffy coat suspension was then carefully layered on 5 ml of Histopaque (Sigma Chemical Co., St. Louis, Mo.) and centrifuged at 1500 rpm for 30 minutes at room temperature. The interface which is mostly PBMCs (peripheral mononuclear cells) was aspirated and transferred to a 15 ml conical centrifuge tube and, resuspended in 2 ml cold RPMI-1640 and brought up to 15 ml with cold RPMI-1640 medium. Cells were centrifuged at 1500 rpm for 10 minutes. The supernatant was then aspirated and discarded. The cell pellet was re-suspended in 1 ml of cold RPMI 1640 and brought up to 15 ml with RPMI medium. This step was repeated twice, except that in the last step, the cells were resuspended with 1 ml of cold RPMI-1640 medium and cell counts were performed with a hemocytometer according to the Sigma cell culture catalogue.
# (§4) Pokewood mitogen was used as a control along with positive and negative controls. Negative control cells were killed with 70% methanol. Positive (+) control cells were incubated in RPMI medium (untreated). […] of AlamarBlue was added to the cells, and readings were taken after 24 hours, 48 hours, 72 hours, and 96 hours using a fluorimeter (excitation 544/transmission 590 nm).
# (§5) In choosing a peptide for possible treatment of a given indication it is important to match the therapeutic activity and specificity of the peptide with its possible toxic properties.
# (§6) The protocols for WBC and WI38 stimulation have been discussed above. The RBC protocol follows Table 24.
# [7] = test system: human leukocytes (WBC); test: Leukocyte (WBC) inhibition, toxicity LD50; type: cell-based; details: Table 42
# Experimental: as §2, §3, §4, §5, §6
# [8] = test system: collagen; test: Collagen stimulation, ELISA on fibroblast cell lines; type: cell-based
# Experimental: (§7) Fibroblast cell lines were cultured under standard conditions and assayed for collagen and laminin using an ELISA system manufactured by Panvera (Madison, Wis.). Antibodies for collagen and laminin manufactured by Takara Shuzo Co., Ltd Japan. […] The other three peptides tested neither stimulated nor inhibited production (i.e. no effect was observed).
# [9] = test system: Escherichia coli 25922; test: microbe, parasite or virus in culture
# Source text: Synergy between peptide Shiva-10 (SEQ ID NO:4) and various antimicrobial agents was investigated against Escherichia coli 25922.
# Synergy between tetracycline and various peptides was investigated against Escherichia coli 25922 MBC. […] When combined with the peptides, the concentration of tetracycline was held at 1.5 ppm.
# [10] = test system: P. aeruginosa 27853; test: Synergy between doxacycline and peptides, MBC; type: cell-based, Pseudomonas aeruginosa; details: for MBC, With doxacycline: doxacycline held at 10 ppm; for MBC, Without doxacycline: peptide alone
# Source text: Synergy between doxacycline and various peptides was investigated against P. aeruginosa 27853. The following table illustrates the beneficial effects of combining doxacycline and the peptides, where the numbers are the minimum bactericidal concentration (MBC; μg/mL). When combined with the peptides, the doxacycline was held at 10 ppm concentration.
# [11] = test system: S. epidermidis C621; type: cell-based, Staphylococcus epidermidis; details: mean of three; 16 to 20 hours at 35° C.
# [12] = test system: laminin; test: Laminin stimulation, ELISA on fibroblast cell lines; type: cell-based
# Experimental: as §7
# [13] = test system: S. pyogenes ATCC19615; test: Antimicrobial assays II, NCCLS broth microdilution MIC; type: cell-based, Streptococcus pyogenes; details: mean of three, in µg/mL
# [14] = test system: S. pneumoniae C719; test: as above; type: cell-based, Streptococcus pneumoniae; details: mean of three, in µg/mL
# [15] = test system: HeLaS3; test: Anti-cancer assay, MTT, LD50; type: cell-based; details: 24 hours with peptide, cervical carcinoma
# Source text: as §1
# [16] = test system: BMKC; test: Anti-cancer assay, MTT, LD50; type: cell-based; details: BMKC cloned melanoma line, 24 hours with peptide
# Source text: as §1
# [17] = test system: S. aureus (MRSA); type: cell-based, Staphylococcus aureus; details: mean of three; 16 to 20 hours at 35° C.
# [18] = test system: S. pyogenes M76; test: Antimicrobial assays II, NCCLS broth microdilution MIC; type: cell-based, Streptococcus pyogenes; details: mean of three; 16 to 20 hours at 35° C.
# [19] = test system: S. pneumoniae C718; test: as above; type: cell-based, Streptococcus pneumoniae; details: mean of three
# [20] = test system: yeast (Saccharomyces cerevisiae); test: Antimicrobial assay I, yeast assay in RPMI 1640; type: cell-based; details: RPMI 1640 media
# [21] = test system: Staphylococcus aureus ATCC 6538; test: Antimicrobial assay I, MIC by OD measurement; type: cell-based; details: 37° C. for 24 hours, absorbance 620 nm
# [22] = test system: Pseudomonas aeruginosa ATCC 9027; test: Antimicrobial assay I, MIC by OD measurement; type: cell-based; details: 37° C. for 24 hours, absorbance 620 nm
# [23] = test system: SW480; test: Anti-cancer assay, MTT, LD50; type: cell-based; details: SW480 colon adenocarcinoma line, 24 hours with peptide
# Source text: as §1
# [24] = test system: PC3; test: Anti-cancer assay, MTT, LD50; type: cell-based; details: 24 hours with peptide, prostate adenocarcinoma
# Source text: as §1
# [25] = test system: H1299; test: Anti-cancer assay, MTT, LD50; type: cell-based; details: 24 hours with peptide, lung large cell carcinoma
# Source text: as §1
# [26] = WI38 LD50, Table 41, lower part
# [27] = pH 7, Table 41, lower part, read-out: RBC LD50
# [28] = LD50 WI38, WI38 normal lung fibroblast line, MTT, 24 hours with peptide
# [29] = pH 7, hemolytic assay, concentration at 50% hemolysis, 1 hour at 37° C., read-out: LD50
# [30] = MTT, 24 hours with peptide, normal fibroblast line
molecule,measurement,setting,value
CC(C)C[C@H](NC(=O)[C@H](C)NC(=O)[C@H](CC(C)C)NC(=O)[C@H](CCCCN)NC(=O)[C@H](C)NC(=O)[C@H](CC(C)C)NC(=O)[C@H](CCCCN)NC(=O)[C@H](CCCCN)NC(=O)[C@H](C)NC(=O)[C@H](CC(C)C)NC(=O)[C@H](CCCCN)NC(=O)[C@H](C)NC(=O)[C@H](CC(C)C)NC(=O)[C@H](CCCCN)NC(=O)[C@H](CCCCN)NC(=O)[C@H](C)NC(=O)[C@@H](N)C(C)C)C(N)=O [32 (50)],CC50 at 24 h,[1]; [26],40 µg/mL
same,HC50 at 1 h,[2]; [27],420 µg/mL
same,RBC LD50,[3],420 µg/mL
same,WI38 LD50,[4]; Table 42,40 µg/mL
same,MCF7 LD50,"[5]; Table 41, lower part",32 µg/mL
same,MCF7 LD50,[5]; Table 42,32 µg/mL
same,CC50,[6],420 µg/mL
same,WBC LD50,[7],420 µg/mL
TGFβ,Collagen stimulation,[8],60%
CC(C)C[C@H](NC(=O)[C@H](C)NC(=O)[C@H](CC(C)C)NC(=O)[C@H](CCCCN)NC(=O)[C@H](C)NC(=O)[C@H](CC(C)C)NC(=O)[C@H](CCCCN)NC(=O)[C@H](CCCCN)NC(=O)[C@H](C)NC(=O)[C@H](CC(C)C)NC(=O)[C@H](CCCCN)NC(=O)[C@H](C)NC(=O)[C@H](CC(C)C)NC(=O)[C@H](CCCCN)NC(=O)[C@H](CCCCN)NC(=O)[C@H](C)NC(=O)[C@@H](N)Cc1ccccc1)C(N)=O [FLAK 26AM (P35; SEQ ID NO: 17)],"MBC, Without tetracycline",[9]; peptide alone,50 µg/mL
same,"MBC, With tetracycline",[9]; tetracycline held at […],20 µg/mL
same,"MBC, With doxacycline",[10],32 µg/mL
same,"MBC, Without doxacycline",[10],50 µg/mL
FAKKLAKLAKKLLAL-NH2 [20 (38)],CC50 at 24 h,[1]; [26],100 µg/mL
same,HC50 at 1 h,[2]; [27],350 µg/mL
same,RBC LD50,[3],350 µg/mL
same,WI38 LD50,[4]; Table 42,100 µg/mL
same,MCF7 LD50,"[5]; Table 41, lower part",17 µg/mL
same,MCF7 LD50,[5]; Table 42,17 µg/mL
same,CC50,[6],54 µg/mL
same,WBC LD50,[7],54 µg/mL
MPKWKVFKKIEKVGRNIRNGIVKAGPAIAVLGEAKALG-OH [SB-37 (P5; SEQ ID NO: 3)],"MBC, With doxacycline",[10],30 µg/mL
same,"MBC, Without doxacycline",[10],200 µg/mL
CC(C)C[C@H](NC(=O)[C@H](C)NC(=O)[C@H](CC(C)C)NC(=O)[C@H](CCCCN)NC(=O)[C@H](C)NC(=O)[C@H](CC(C)C)NC(=O)[C@H](CCCCN)NC(=O)[C@H](CCCCN)NC(=O)[C@H](C)NC(=O)[C@H](CC(C)C)NC(=O)[C@H](CCCCN)NC(=O)[C@H](C)NC(=O)[C@H](CC(C)C)NC(=O)[C@H](CCCCN)NC(=O)[C@H](CCCCN)NC(=O)[C@H](C)NC(=O)[C@@H](N)Cc1ccccc1)C(N)=O [17 (35)],CC50 at 24 h,[1]; [26],25 µg/mL
same,HC50 at 1 h,[2]; [27],200 µg/mL
same,RBC LD50,[3],200 µg/mL
same,WI38 LD50,[4]; Table 42,25 µg/mL
same,MCF7 LD50,"[5]; Table 41, lower part",9 µg/mL
same,MCF7 LD50,[5]; Table 42,9 µg/mL
same,CC50,[6],25 µg/mL
same,WBC LD50,[7],25 µg/mL
FAKLLALALKLKL-NH2 [P94],S. epidermidis C621 MIC,[11],8 µg/mL
same,Collagen stimulation,[8],0%
same,Laminin stimulation,[12],0%
same,CC50 at 24 h,[1]; [28],6 µg/mL
same,HC50 at 1 h,[2]; [29],350 µg/mL
same,WI38 LD50,[4]; [30],6 µg/mL
same,S. pyogenes MIC,[13],8
same,S. pneumoniae MIC,[14],128
same,HeLaS3 LD50,[15],> (> indicates greater than 1000)
same,LD50 MCF7,[5],65 µg/mL
same,LD50 BMKC,[16],11 µg/mL
same,S. aureus (MRSA) MIC,[17],16 µg/mL
same,S. pyogenes M76 MIC,[18],8 µg/mL
same,S. pneumoniae MIC,[19],64 µg/mL
same,yeast (MIC or MFC),[20],> (> indicates greater than 200 μg/mL)
same,staph6538 (MIC),[21],10 µg/mL
same,paerug9027 (MIC),[22],> (> indicates greater than 200 μg/mL)
FALALKALKKL-NH2 [P165],Collagen stimulation,[8],0%
same,Laminin stimulation,[12],0%
same,CC50 at 24 h,[1]; [28],470 µg/mL
same,HC50 at 1 h,[2]; [29],350 µg/mL
same,WI38 LD50,[4]; [30],470 µg/mL
same,LD50 SW480,[23],240 µg/mL
same,PC3 LD50,[24],340 µg/mL
same,HeLaS3 LD50,[15],400 µg/mL
same,LD50 MCF7,[5],360 µg/mL
same,H1299 LD50,[25],56 µg/mL
same,LD50 BMKC,[16],240 µg/mL
same,yeast (MIC or MFC),[20],25 µg/mL
same,staph6538 (MIC),[21],10 µg/mL
same,paerug9027 (MIC),[22],25 µg/mL

# From patent US20050209157A1, “Short bioactive peptides and methods for their use” (priority 2001, published 2005)
